# Measurements from patent publication US11466044B2 (WAYNE STATE UNIVERSITY, priority 2017, dated 2022).
# Counter-ions that a name gives are not always drawn. Like-named read-outs stand apart in the source and are kept apart here.
# How the values were obtained:
# MRSA = assay: MIC by broth microdilution, MRSA isolates; type: cell-based; conditions: for MIC50: Staphylococcus aureus, MRSA
# E coli wild type = assay: MIC by broth microdilution, wild type E coli; type: cell-based; conditions: for MIC / MIC50: Escherichia coli; for MIC50: Table 1 (Example 1)
# P aeruginosa = assay: MIC by broth microdilution, P aeruginosa isolates; type: cell-based, Pseudomonas aeruginosa; conditions: for MIC: strain AG220 Pseudomonas aeruginosa ATCC27853, read-out: MIC AG220 P. aerugin; for MIC50: Pseudomonas aeruginosa
# [1] = test system: E coli carrying specific resistance determinants; assay: MIC by broth microdilution, E coli carrying specific resistance determinants; type: cell-based; conditions: Escherichia coli
# [2] = test system: wild type bacterial ribosomes; assay: in-vitro translation assay, bacterial ribosomes; type: biochemical; conditions: bacterial ribosome, read-out: IC50 Bac
# From the text: (§1) The antiribosomal activity of these compounds was investigated with cell-free translation assays using both wild type bacterial ribosomes and hybrid ribosomes carrying eukaryotic decoding A sites enabling the prediction of selectivity.
# [3] = test system: cytosolic ribosome (human chimeric); type: biochemical; conditions: cytosolic, read-out: IC50 Cyt
# From the text: as §1
# [4] = test system: mitochondrial ribosome (human chimeric); type: biochemical; conditions: mitochondrial, read-out: IC50 Mit
# From the text: as §1
# [5] = test system: Klebsiella pneumonia AG215; assay: MIC by broth microdilution, Klebsiella pneumonia; type: cell-based; conditions: Klebsiella pneumoniae; strain AG215 Klebsiella pneumonia; read-out: MIC AG215 K. pneumon
# [6] = test system: Acinetobacter baumannii pittii AG225; assay: MIC by broth microdilution, Acinetobacter baumannii; type: cell-based; conditions: strain AG225 Acinetobacter baumannii pittii
# [7] = test system: Enterobacter cloacae AG290; assay: MIC by broth microdilution, Enterobacter cloacae; type: cell-based; conditions: strain AG290 Enterobacter cloacae; read-out: MIC AG290 E. cloacae
# N. gonorrhoeae = assay: Disk diffusion, N. gonorrhoeae; type: cell-based; conditions: Neisseria gonorrhoeae
# M. smegmatis SZ380 = assay: MIC by broth microdilution, M. smegmatis
# [8] = ATCC25922, strain AG212 E. coli (ATCC25922), read-out: MIC AG212 E. coli
structure (smiles),measurement,setting,value
"CC1CC(O)C2O[C@H](O[C@@H]3C(N)C[C@@H](N)C(O)[C@H]3O[C@@H]3O[C@H](CO)[C@H](O[C@H]4O[C@@H](CN)[C@@H](O)C(O)C4N)C3O)C(N)[C@@H](O)[C@@H]2O1 (stereo partly drawn) [Compound 125, 4-O-(2′-Amino-4′,8′-anhydro-2′,7′,9′-trideoxy-D-threo-α-D-gluco-nonapyranosyl)-5-O-[3-O-(2,6-diamino-2,6-dideoxy-β-L-idopyranosyl)-β-D-ribofuranosyl]-2-deoxystreptamine.5AcOH]",MIC50 MRSA AG38,"MRSA; strain AG38, Table 1 (Example 2)",8 to 16 µg/mL
same,MIC50 MRSA AG39,"MRSA; strain AG39, Table 1 (Example 2)",8 µg/mL
same,MIC50 MRSA AG42,"MRSA; strain AG42, Table 1 (Example 2)",8 µg/mL
same,MIC50 MRSA AG44,"MRSA; strain AG44, Table 1 (Example 2)",4 µg/mL
same,MIC50 E coli BM13 (AG06) wt,"E coli wild type; BM13 (AG06) wt, Table 2A (Example 2)",2 µg/mL
same,MIC,E coli wild type; [8],2 µg/mL
same,MIC WT,"E coli wild type; WT, Table 3 (Example 2)",1 to 2 µg/mL
same,MIC50 E coli pH430 WT,"E coli wild type; pH430 WT, Table 2B (Example 2)",1-2 μg/ml
same,MIC50 E coli AG01,"E coli wild type; strain AG01, Table 1 (Example 2)",8 µg/mL
same,MIC50 E coli AG03,"E coli wild type; strain AG03, Table 1 (Example 2)",8 µg/mL
same,MIC50 E coli AG55,"E coli wild type; strain AG55, Table 1 (Example 2)",8 µg/mL
same,MIC50 P aeruginosa AG31,"P aeruginosa; strain AG31, Table 1 (Example 2)",32 µg/mL
same,MIC50 P aeruginosa AG32,"P aeruginosa; strain AG32, Table 1 (Example 2)",16 to 32 µg/mL
same,MIC50 P aeruginosa AG33,"P aeruginosa; strain AG33, Table 1 (Example 2)",>128 µg/mL
same,MIC50 P aeruginosa AG86,"P aeruginosa; strain AG86, Table 1 (Example 2)",>128 µg/mL
same,MIC,P aeruginosa,8 µg/mL
same,MIC50,"[1]; read-out: MIC50 E coli AG07 AAC(3), AG07 AAC(3), Table 2A (Example 2)",8 µg/mL
same,MIC50,"[1]; read-out: MIC50 E coli AG09 AAC(6′), AG09 AAC(6′), Table 2A (Example 2)",4 µg/mL
same,MIC50,"[1]; read-out: MIC50 E coli AG036 ANT(4′,4″), AG036 ANT(4′,4″), Table 2A (Example 2)",2 to 4 µg/mL
same,MIC50,"[1]; read-out: MIC50 E coli AG036 ANT(4′,4″), AG036 ANT(4′,4″), Table 2B (Example 2)",0.5 µg/mL
same,MIC50,"[1]; read-out: MIC50 E coli AG037 APH(3′)-III, AG037 APH(3′)-III, Table 2B (Example 2)",16 µg/mL
same,MIC50,"[1]; read-out: MIC50 E coli AG037 APH(3′,5″), AG037 APH(3′,5″), Table 2A (Example 2)",32 to 64 µg/mL
same,MIC50,"[1]; read-out: MIC50 E coli AG103 ArmA, AG103 ArmA, Table 2A (Example 2)",4 µg/mL
same,MIC50,"[1]; read-out: MIC50 E coli AG103 armA, AG103 armA, Table 2B (Example 2)",1 to 2 µg/mL
same,MIC50,"[1]; read-out: MIC50 E coli AG105 AAC(2′), AG105 AAC(2′), Table 2A (Example 2)",2 to 4 µg/mL
same,MIC50,"[1]; read-out: MIC50 E coli pH414 AAC(6′)-I, pH414 AAC(6′)-I, Table 2B (Example 2)",1 µg/mL
same,MIC50,"[1]; read-out: MIC50 E coli pH415 AAC(6′)-II, pH415 AAC(6′)-II, Table 2B (Example 2)",1 to 2 µg/mL
same,MIC50,"[1]; read-out: MIC50 E coli pH421 APH(3′)-I, pH421 APH(3′)-I, Table 2B (Example 2)",> 32 µg/mL
same,MIC50,"[1]; read-out: MIC50 E coli pH422 APH(3′)-II, pH422 APH(3′)-II, Table 2B (Example 2)",4 µg/mL
same,MIC50,"[1]; read-out: MIC50 E coli pH423 APH(3)-VI, pH423 APH(3)-VI, Table 2B (Example 2)",2 µg/mL
same,MIC50,"[1]; read-out: MIC50 E coli pH432 ANT(4′), pH432 ANT(4′), Table 2B (Example 2)",1 to 2 µg/mL
same,MIC,[1]; read-out: MIC AAC(6′),1 to 2 µg/mL
same,MIC,[1]; read-out: MIC ANT(4′),0.5 µg/mL
same,MIC,[1]; read-out: MIC APH(3′)-II,4 µg/mL
same,MIC,[1]; read-out: MIC APH(3′)-VI,2 µg/mL
same,IC50,[2]; Table 3 (Example 2),0.04 µM
same,IC50,[3]; Table 3 (Example 2),30 µM
same,IC50,[4]; Table 3 (Example 2),312 µM
same,MIC,[5],2 µg/mL
same,MIC,[6],4 µg/mL
same,MIC,[7],2 µg/mL
same,zone of inhibition at 25 nmol/disc,N. gonorrhoeae,9 mm
same,MIC SZ380 M. smegmatis,M. smegmatis SZ380; strain SZ380 Mycobacterium smegmatis,0.5 µg/mL
"NC[C@@H]1O[C@H](O[C@@H]2C(O)[C@H](O[C@@H]3C(O)[C@H](N)CC(N)[C@H]3O[C@H]3OC(CO)[C@@H](O)[C@H](O)C3N)O[C@@H]2CNC=O)C(N)C(O)[C@@H]1O (stereo partly drawn) [Compound 137, 5″-Deoxy-5″-formamido-paromomycin acetate salt]",MIC50,MRSA; read-out: MIC50 MRSA AG39,> 128 µg/mL
same,MIC50,MRSA; read-out: MIC50 MRSA AG42,> 128 µg/mL
same,MIC50,"MRSA; strain AG38, Table 1 (Example 1), read-out: MIC50 MRSA AG38",4 µg/mL
same,MIC50,"MRSA; strain AG44, Table 1 (Example 1), read-out: MIC50 MRSA AG44",2 to 4 µg/mL
same,MIC,"E coli wild type; AG006 wt, Table 2 (Example 1), read-out: MIC E coli AG006 wt",1 µg/mL
same,MIC,"E coli wild type; AG102 wt, Table 2 (Example 1), read-out: MIC E coli AG102 wt",1 µg/mL
same,MIC,"E coli wild type; AG160 wt, Table 2 (Example 1), read-out: MIC E coli AG160 wt",2 µg/mL
same,MIC,E coli wild type; [8],2 µg/mL
same,MIC,"E coli wild type; WT, Table 3 (Example 1), read-out: MIC WT",1 to 2 µg/mL
same,MIC,"E coli wild type; clinical isolate AG160 WT, Table 2 (Example 4), read-out: MIC AG160 E. coli WT",2 µg/mL
same,MIC,"E coli wild type; engineered strain pH430 WT, Table 2 (Example 4), read-out: MIC pH430 E. coli WT",1 to 2 µg/mL
same,MIC50,"E coli wild type; strain AG01, read-out: MIC50 E coli AG01",4 µg/mL
same,MIC50,"E coli wild type; strain AG03, read-out: MIC50 E coli AG03",4 µg/mL
same,MIC50,"E coli wild type; strain AG55, read-out: MIC50 E coli AG55",4 µg/mL
same,MIC50,P aeruginosa; read-out: MIC50 P aeruginosa AG31,128 µg/mL
same,MIC50,P aeruginosa; read-out: MIC50 P aeruginosa AG32,128 µg/mL
same,MIC50,P aeruginosa; read-out: MIC50 P aeruginosa AG33,> 128 µg/mL
same,MIC50,P aeruginosa; read-out: MIC50 P aeruginosa AG86,> 128 µg/mL
same,MIC,P aeruginosa,> 64 µg/mL
same,MIC,[1]; read-out: MIC AG037 E. coli APH(3′)-III,128 µg/mL
same,MIC,[1]; read-out: MIC AG163 E. coli APH(3′)-I,64 µg/mL
same,MIC,[1]; read-out: MIC AG166 E. coli APH(3′)-II,> 128 µg/mL
same,MIC,[1]; read-out: MIC APH(3)-VI,> 64 µg/mL
same,MIC,[1]; read-out: MIC APH(3′)-I,> 64 µg/mL
same,MIC,[1]; read-out: MIC APH(3′)-II,> 64 µg/mL
same,MIC,[1]; read-out: MIC APH(3′)-III,> 64 µg/mL
same,MIC,[1]; read-out: MIC E coli AG007 ANT(3″) AAC(3)-I,4 µg/mL
same,MIC,[1]; read-out: MIC E coli AG103 ArmA,8 µg/mL
same,MIC,[1]; read-out: MIC E coli AG163/164 APH(3′)-Ia,32 to 64 µg/mL
same,MIC,[1]; read-out: MIC E coli AG166 APH(3′)-IIa,> 128 µg/mL
same,MIC,[1]; read-out: MIC pH421 E. coli APH(3′)-I,> 64 µg/mL
same,MIC,[1]; read-out: MIC pH422 E. coli APH(3′)-II,> 64 µg/mL
same,MIC,[1]; read-out: MIC pH423 E. coli APH(3′)-VI,> 64 µg/mL
same,IC50,[2]; Table 3 (Example 1),0.04 µM
same,IC50,[3]; Table 3 (Example 1),90 µM
same,IC50,[4]; Table 3 (Example 1),144 µM
same,MIC,[5],1 µg/mL
same,MIC,[6],2 µg/mL
same,MIC,[7],1 to 2 µg/mL
same,zone of inhibition at 25 nmol/disc,N. gonorrhoeae,11 mm
same,MIC,"M. smegmatis SZ380; Mycolicibacterium smegmatis, SZ380, read-out: MIC SZ380 M. smegmatis, strain SZ380 Mycobacterium smegmatis",1 µg/mL
